The test system of experiment [1] is yeast [PSI^+] prion. In kind it is cell-based.
A further experiment deals with [URE3] prion. In kind it is cell-based.
For experiment [2], the system named is yeast [PSI^+] prion. As to conditions: cited from earlier work.

Entries after “also recorded” stand apart in the source; their conditions may differ.

Here are results for 5 compounds from patent US20110251428A1 (priority 2006, published 2011).

For `CC(=O)O.N=C(N)N/N=C/c1c(Cl)cccc1Cl` [Guanabenz acetate], the “activity against yeast [PSI+] prion (halo of red colonies)” value in the experiment on yeast [PSI^+] prion [1] is “strongly active; also recorded: very active”. The “activity against [URE3] prion” value in experiment [URE3] prion is recorded as “also active; also recorded: also very active”.
As for `CN(C)CCCN1c2ccccc2Sc2ccc(Cl)cc21` [chlorpromazine], the “activity in the yeast-based method (earlier study)” value in the experiment on yeast [PSI^+] prion [2] is reported as “active”.
Turning to `N=C(N)N/N=C/c1c(Cl)ccc(Cl)c1Cl` [PSI210], in the experiment on yeast [PSI^+] prion [1], the “activity against yeast [PSI+] prion (halo of red colonies)” value is recorded as “strongest activity; also recorded: more potent than Guanabenz itself”.
Turning to `Clc1cccc(Cl)c1N=C1NCCN1` [Clonidine], in the experiment on yeast [PSI^+] prion [1], the “anti-prion activity (data not shown)” value was “did not exhibit any anti-prion activity”.
For `CCN(CC)CCCC(C)Nc1c2ccc(Cl)cc2nc2ccc(OC)cc12` (stereo not drawn) [quinacrine], the “activity in the yeast-based method (earlier study)” value in the experiment on yeast [PSI^+] prion [2] is on record as “active”.
